Like-named read-outs stand apart in the source and are kept apart here.
Assays:
[1] = human oral absorption; cited from earlier work
[2] = PAMPA permeability with subject invention membrane; format: in vitro ADME; conditions: for Papp at 5 h: PAMPA; for measured permeability with 10% methanol, 90% PBS as working buffer: 90% PBS versus PBS, FIG. 8
Experimental: FIGS. 5-9 present various data relating to the subject invention. […] Then the filter plate 34 was coupled with the receiver plate 42 and the assembly was incubated in a humidity chamber without agitation at room temperature (except for a data set in FIG. 9, where the assembly was incubated in a humidity chamber without agitation at 37° C.) for 5 hours. At the end of the incubation, the plates 34, 42 were separated and 150 μL solution from each well 36, 44 of both the filter plate 34 and the receiver plate 42 was transferred to UV-transparent plates. The final concentrations of compounds in both donor wells and acceptor wells were analyzed by UV-plate reader. […] Where: • C0=initial compound concentration in donor well (mM) • CD (t)=compound concentration in donor well at time t. (mM) • CA (t)=compound concentration in acceptor well at time t.

[3] = cited from earlier work
[4] = PBS pH 7.4, room temperature, no agitation, 5 hours, read-out: Pe Subject Invention Membrane Results
[5] = prior art PAMPA membrane, PBS pH 7.4, room temperature, no agitation

Q: What does the source list for CCCC(=O)Nc1ccc(OCC(O)CNC(C)C)c(C(C)=O)c1 (stereo not drawn) [acebutolol]?
A: Human Absorption [1]: 50%; Papp at 5 h [2, 4]: 0.21 ×10⁻⁶ cm/s

Q: Which Papp at 5 h [2, 4] does the source give for Nc1nc2c(ncn2COCCO)c(=O)[nH]1 [acyclovir] here?
A: 0.1 ×10⁻⁶ cm/s

Q: For N=C(N)NC(=O)c1nc(Cl)c(N)nc1N [amiloride], which “Human Absorption” value [1] is on record?
A: 50%

Q: What about the Papp at 5 h [2, 4] of the same compound?
A: 0.08 ×10⁻⁶ cm/s

Q: And the “Pe Prior Art Results” value [3, 5]?
A: 0.00 10^−6 cm/s

Q: Which “PAMPA permeability values found by the prior art” value (from here on “PAMPA permeability values found”) ([3]; PAMPA) does the source give for Cc1cc(=O)n(-c2ccccc2)n1C [antipyrine] here?
A: low

Q: And the “Pe Prior Art Results” value [3, 5]?
A: 0.74 10^−6 cm/s

Q: With Cn1c(=O)c2c(ncn2C)n(C)c1=O [caffeine] as the compound, how does the “PAMPA permeability values found” value ([3]; in words) read?
A: low

Q: Which “Human Absorption” value [1] does the source give for NC(=O)N1c2ccccc2C=Cc2ccccc21 [carbamazepine] here?
A: 100%

Q: And the Papp at 5 h [2, 4]?
A: 7.79 ×10⁻⁶ cm/s

Q: And the “Pe Prior Art Results” value [3, 5]?
A: 6.4 10^−6 cm/s

Q: With Clc1cccc(Cl)c1N=C1NCCN1 [clonidine] as the compound, how does the “Human Absorption” value [1] read?
A: 100%

Q: And the Papp at 5 h [2, 4]?
A: 4.92 ×10⁻⁶ cm/s

Q: And the “Pe Prior Art Results” value [3, 5]?
A: 1.5 10^−6 cm/s

Q: With O=C(O)Cc1ccccc1Nc1c(Cl)cccc1Cl [diclofenac] as the compound, how does the Papp at 5 h [2, 4] read?
A: 6.3 ×10⁻⁶ cm/s

Q: For NC(N)=Nc1nc(CSCCC(N)=NS(N)(=O)=O)cs1 [famotidine], which “Human Absorption” value [1] is on record?
A: 40%

Q: And the Papp at 5 h [2, 4]?
A: 0.04 ×10⁻⁶ cm/s

Q: And the “Pe Prior Art Results” value [3, 5]?
A: 0.06 10^−6 cm/s

Q: Which Papp at 5 h [2, 4] does the source give for NS(=O)(=O)c1cc2c(cc1Cl)NCNS2(=O)=O [hydrochlorothiazide] here?
A: 0.09 ×10⁻⁶ cm/s

Q: And the “Pe Prior Art Results” value [3, 5]?
A: 0.02 10^−6 cm/s

Q: Which Papp at 5 h [2, 4] does the source give for CC(C)Cc1ccc(C(C)C(=O)O)cc1 (stereo not drawn) [ibuprofen] here?
A: 4.39 ×10⁻⁶ cm/s

Q: What about the “Pe Prior Art Results” value [3, 5] of the same compound?
A: 2.4 10^−6 cm/s

Q: Which Papp at 5 h [2, 4] does the source give for COc1ccc2c(c1)c(CC(=O)O)c(C)n2C(=O)c1ccc(Cl)cc1 [indomethacin] here?
A: 6.24 ×10⁻⁶ cm/s

Q: What does the source list for CC(C(=O)O)c1cccc(C(=O)c2ccccc2)c1 (stereo not drawn) [ketoprofen]?
A: Papp at 5 h [2, 4]: 3.1 ×10⁻⁶ cm/s; PAMPA permeability values found by the prior art ([3]; in words): low

Q: For COCCc1ccc(OCC(O)CNC(C)C)cc1 (stereo not drawn) [metoprolol], which Papp at 5 h [2, 4] is on record?
A: 4.29 ×10⁻⁶ cm/s

Q: And the “PAMPA permeability values found” value ([3]; in words)?
A: low

Q: With Clc1ccc(COC(Cn2ccnc2)c2ccc(Cl)cc2Cl)c(Cl)c1 (stereo not drawn) [miconazole] as the compound, how does the “measured permeability with 10% methanol, 90% PBS as working buffer” value [2] read?
A: can be measured

Q: What does the source list for CC(C)(C)NCC(O)COc1cccc2c1CC(O)C(O)C2 (stereo not drawn) [nadolol]?
A: Human Absorption [1]: 30%; Papp at 5 h [2, 4]: 0.16 ×10⁻⁶ cm/s; Pe Prior Art Results [3, 5]: 0.28 10^−6 cm/s

Q: For O=C1NC(=O)C(c2ccccc2)(c2ccccc2)N1 [phenytoin], which Papp at 5 h [2, 4] is on record?
A: 5.73 ×10⁻⁶ cm/s

Q: And the “PAMPA permeability values found” value ([3]; in words)?
A: low

Q: And the “Pe Prior Art Results” value [3, 5]?
A: 0.38 10^−6 cm/s

Q: With CC(C)NCC(O)COc1cccc2[nH]ccc12 (stereo not drawn) [pindolol] as the compound, how does the Papp at 5 h [2, 4] read?
A: 2.64 ×10⁻⁶ cm/s

Q: With CN1C(C(=O)Nc2ccccn2)=C(O)c2ccccc2S1(=O)=O [piroxicam] as the compound, how does the “Human Absorption” value [1] read?
A: 100%

Q: And the Papp at 5 h [2, 4]?
A: 4.02 ×10⁻⁶ cm/s

Q: And the “Pe Prior Art Results” value [3, 5]?
A: 2.64 10^−6 cm/s

Q: Which “Human Absorption” value [1] does the source give for CNC(=C[N+](=O)[O-])NCCSCc1ccc(CN(C)C)o1 [ranitidine] here?
A: 61%

Q: What about the “Pe Subject Invention Membrane Results” value ([2]; PBS pH 7.4, room temperature, no agitation, 5 hours) of the same compound?
A: 0.45 10^−6 cm/s

Q: What does the source list for O=C(O)c1cc(/N=N/c2ccc(S(=O)(=O)Nc3ccccn3)cc2)ccc1O [sulphasalazine]?
A: Human Absorption [1]: 13%; Papp at 5 h [2, 4]: 0.16 ×10⁻⁶ cm/s; Pe Prior Art Results [3, 5]: 0.00 10^−6 cm/s

Q: For CCN1CCCC1CNC(=O)c1cc(S(N)(=O)=O)ccc1OC (stereo not drawn) [sulpiride], which Papp at 5 h [2, 4] is on record?
A: 0.18 ×10⁻⁶ cm/s

Q: With CC(C)(C)NCC(O)c1cc(O)cc(O)c1 (stereo not drawn) [terbutaline] as the compound, how does the “Human Absorption” value [1] read?
A: 60%

Q: And the Papp at 5 h [2, 4]?
A: 0.46 ×10⁻⁶ cm/s

Q: And the “Pe Prior Art Results” value [3, 5]?
A: 0.05 10^−6 cm/s

Q: Which “measured permeability with 10% methanol, 90% PBS as working buffer” value [2] does the source give for CC(C)(C)c1ccc(C(O)CCCN2CCC(C(O)(c3ccccc3)c3ccccc3)CC2)cc1 (stereo not drawn) [terfenadine] here?
A: can be measured

Q: For Cn1c(=O)c2[nH]cnc2n(C)c1=O [theophyline], which “Pe Prior Art Results” value ([3]; PAMPA, pH 7.4) is on record?
A: 0.04 10^−6 cm/s

Q: Which results are given for CC(C)(C)NC[C@H](O)COc1nsnc1N1CCOCC1 [timolol]?
A: Papp at 5 h [2, 4]: 4.45 ×10⁻⁶ cm/s; PAMPA permeability values found by the prior art ([3]; in words): low; Pe Prior Art Results [3, 5]: 0.61 10^−6 cm/s

Q: Which Papp at 5 h ([2]; pH 7.4) does the source give for CC(=O)CC(c1ccccc1)c1c(O)c2ccccc2oc1=O (stereo not drawn) [warfarin] here?
A: 5.28 ×10⁻⁶ cm/s

Source: patent US9999859B2, “Immobilized multi-layer artificial membrane for permeability measurements (PAMPA)” (CORNING INCORPORATED, priority 2005, dated 2018)
